Source: patent US10787454B2, “Imidazo[1,5-a]pyrimidinyl carboxamide compounds and their use in the treatment of medical disorders” (BIAL-BioTech Investments, Inc., priority 2016, dated 2020)
In brackets after ≈: the same amount, converted by molar mass.

Legend:
[1] = Compound solubility in water; type: physicochemical
[2] = biological target: T1, glucocerebrosidase (Gcase) (Homo sapiens, UniProt P04062); assay: Glucocerebrosidase (Gcase) activation assay, 4-methylumbelliferyl-beta-D-glucopyranoside substrate, with saposin C; type: biochemical; settings: for activation at 0.1 µM: read-out: Percent Gcase Activation, 0.1 μM Test Compound; for activation at 1 µM / Percent Gcase Activation, 1 μM Test Compound: test compound at 1.0 μM; for activation at 1 µM: read-out: Percent Gcase Activation, 1 μM Test Compound
T1 sequence (P04062 40-536): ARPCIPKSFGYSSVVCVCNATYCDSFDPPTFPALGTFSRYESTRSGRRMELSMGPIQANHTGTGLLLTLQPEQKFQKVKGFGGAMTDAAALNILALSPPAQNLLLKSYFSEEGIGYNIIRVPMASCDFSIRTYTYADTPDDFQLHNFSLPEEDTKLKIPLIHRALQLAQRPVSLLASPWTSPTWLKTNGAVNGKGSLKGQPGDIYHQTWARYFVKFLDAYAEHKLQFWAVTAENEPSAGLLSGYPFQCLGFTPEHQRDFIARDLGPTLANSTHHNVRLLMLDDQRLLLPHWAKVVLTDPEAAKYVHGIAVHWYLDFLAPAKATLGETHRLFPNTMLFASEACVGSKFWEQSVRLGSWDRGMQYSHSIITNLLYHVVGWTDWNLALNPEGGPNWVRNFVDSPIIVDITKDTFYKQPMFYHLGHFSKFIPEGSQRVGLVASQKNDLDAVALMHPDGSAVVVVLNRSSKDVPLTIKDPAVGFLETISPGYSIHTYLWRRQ
Method: The ability of exemplary compounds to activate glucocerebrosidase (Gcase) was measured.
A 484 μL aliquot of a 1.0 mg/mL solution of phosphatidylserine (PS) (Sigma P7769) in chloroform was evaporated under a stream of nitrogen for 1 hour. The lipid film was dissolved over 4 minutes of vigorous vortexing in 40 mL of 176 mM K2HPO4/50 mM citric acid (pH 4.7) containing 7.5 μL of triton X-100, resulting in a mixed micellar preparation with a composition of 0.32 mM triton and 0.37 mol % PS. 4-Methylumbelliferyl-beta-D-glucopyranoside (ACROS-337025000) was dissolved in the micellar solution to a final concentration of 2 mM for use as the reaction substrate.
Test compounds were diluted to the desired concentrations with dimethylsulfoxide (DMSO) from 10 mM stocks, and 0.41 μL of the DMSO compound mixture was added to 100 μL of micellar solution containing 10 nM GCase and 100 nM saposin C (Enzo ALX-201-262-C050). Pre-incubation was allowed to occur for 30 minutes at room temperature, after which the reaction was initiated by combining 25 μL of substrate solution with 25 μL of compound/GCase/saposin mixture. The reaction proceeded for 15 minutes at room temperature and was stopped by adding 150 μL of 1M glycine, pH 12.5. The endpoint of the reaction was monitored by measuring fluorescence intensity (excitation: 365 nm; emission: 440 nm) on a SpectraMax i3 instrument (Molecular Devices). Test compounds were screened at 1.0 and 0.1 μM final concentration, and subsequent 8-point dose response curves were obtained using 3-fold dilutions from a maximum final concentration of 5 μM.

solubility [1] | activation at 0.1 µM ([2]; test compound at 0.1 μM) | activation at 1 µM [2] | Percent Gcase Activation, 1 μM Test Compound [2] | Compound Solubility in Water [1] | SMILES | Percent Gcase Activation, 0.1 μM Test Compound ([2]; test compound at 0.1 μM)
10.6 µg/mL (≈ 29.9 µM) | < 10% | 30 to 60% | – | – | Cc1cc(Oc2ccc(F)cc2)nc2c(C(=O)N[C@@H](C)C3CC3)ncn12 [III-77] | –
– | – | – | +++ (Gcase activation greater than 60%) | – | Cc1cc(C)n2cnc(C(=O)NC(C)C3CCCCC3)c2n1 (stereo not shown) [III-9] | –
– | – | – | +++ (Gcase activation greater than 60%) | 23.0 µg/mL | Cc1cc(C)n2cnc(C(=O)NC(C)C3CCCCC3)c2n1 (stereo not shown) [III-10] | ** (Gcase activation in the range of 10% up to 20%)
0.9 µg/mL (≈ 2.45 µM) | > 20% | > 60% | – | – | Cc1cc(N)nc2c(C(=O)NC(c3ccc(F)cc3)C(F)(F)F)ncn12 (stereo not shown) [III-17] | –
